The values that follow come from ChEMBL document CHEMBL6103669, “Is a Fungal Apocalypse Inevitable or Just a Hallucination? An Overview of the Antifungal Armamentarium Used in the Fight against Pathogenic Fungi” (ACS Med Chem Lett, 2025).

Values after ≈ are worked out from the molar mass of the structure shown.

The target in assay [1] is T1, Sterol 24-C-methyltransferase (Candida albicans (strain SC5314 / ATCC MYA-2876) (Yeast), UniProt O74198).
T1 sequence (O74198 whole entry): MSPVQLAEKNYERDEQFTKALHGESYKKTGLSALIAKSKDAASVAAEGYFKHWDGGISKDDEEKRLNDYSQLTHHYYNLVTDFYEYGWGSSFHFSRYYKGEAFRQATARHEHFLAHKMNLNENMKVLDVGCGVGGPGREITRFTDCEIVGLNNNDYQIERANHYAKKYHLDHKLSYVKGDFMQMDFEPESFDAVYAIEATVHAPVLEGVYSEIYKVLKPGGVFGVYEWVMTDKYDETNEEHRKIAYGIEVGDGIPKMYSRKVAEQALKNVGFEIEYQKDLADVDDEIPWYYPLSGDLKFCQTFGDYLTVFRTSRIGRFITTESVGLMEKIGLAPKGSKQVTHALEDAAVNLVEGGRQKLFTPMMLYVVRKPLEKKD
As to the kind of experiment: Inhibition of Candida albicans SC5314 Erg6.

The subject of assay [2] is Cryptococcus neoformans. In words: Antifungal activity against Cryptococcus neoformans H99. The format is functional.
Assay [3] concerns Candida tropicalis. In words: Antifungal activity against Candida tropicalis 3890 assessed as reduction in fungal growth. Format: functional.
Assay [4] concerns Candida tropicalis. In words: Antifungal activity against Candida tropicalis 5008 assessed as reduction in fungal growth. Format: functional.
The target of assay [5] is T1, Sterol 24-C-methyltransferase. In words: Inhibition of N-terminal His-tagged Candida albicans SC5314 Erg6 extracted from Escherichia coli BL21 (DE3) methyltransferase activity using zymosterol as substrate pre-incubated for 15 mins followed by substrate addition by liquid scintillation counter analysis.
Assay [6] relates to Candida albicans. As to the kind of experiment: Antifungal activity against fluconazole-resistant Candida albicans 904 assessed as reduction in fungal growth by NCCLS method. Format: functional.
The test system of assay [7] is Cryptococcus neoformans. In words: Antifungal activity against Cryptococcus neoformans H99 assessed as fungal growth inhibition measured after 48 hrs by resazurin assay. The format is functional.
The test system of assay [8] is Candida albicans. As to the kind of experiment: Antifungal activity against fluconazole-resistant Candida albicans 901 assessed as inhibition of fungal growth. Format: functional.

Regarding `C=C(CC[C@@H](CO)[C@H]1CC[C@@]2(C)C3=C(CC[C@]12C)[C@@]1(C)CC[C@@H](OC(=O)C[C@@](C)(O)CC(=O)O)C(C)(C)[C@@H]1CC3)[C@H](C)C(=O)O`, in assay [1], the IC50 was 11.6 µM.
As for `O=C(CCCCCCCOc1ccc(CN2CCN(CC(O)(Cn3cncn3)c3ccc(F)cc3F)CC2)cc1)NO` (centres undefined), the MIC80 against Cryptococcus neoformans [2], in the assay on Candida tropicalis [3] and with Candida tropicalis [4] was 0.5 µg/mL (≈ 0.852 µM) throughout.
With `Cc1c(-n2c(-c3ccc(Br)cc3)cs/c2=N\c2ccccc2)c(=O)n(-c2ccccc2)n1C`, the IC50 in assay [5] was determined as 580 nM. This lies in the sub-micromolar range.
As for `COc1cc2c(cc1-c1c(C)noc1C)[nH]c1ncnc(NCCCCCCC(=O)NO)c12`, the MIC80 with Cryptococcus neoformans [2] was determined as 8 µg/mL (≈ 17.7 µM); in the assay with Candida albicans [6], 0.5 µg/mL (≈ 1.1 µM).
Take `Clc1ccc(N/N=C(\c2ccccc2)c2ccccn2)nc1`: the MIC50 in the assay on Cryptococcus neoformans [7] and with Candida albicans [8] was 0.5 µg/mL (≈ 1.62 µM) throughout.
